The test system of data set [1] is Candida albicans. Description: Antifungal activity against Candida albicans MTCC 227 incubated for overnight by broth micro dilution method. Type of data set: functional.
Data set [2] has as its system Aspergillus clavatus. Description: Antifungal activity against Aspergillus clavatus MTCC 1323 incubated for overnight by broth micro dilution method. Format: functional.
Data set [3] concerns Streptococcus pyogenes. Description: Antimicrobial activity against Streptococcus pyogenes MTCC 442 incubated for overnight by broth micro dilution method. Type of data set: functional.
The test system of data set [4] is Staphylococcus aureus. The experiment in a line: Antimicrobial activity against Staphylococcus aureus MTCC 96 incubated for overnight by broth micro dilution method. Type of data set: functional.
The subject of data set [5] is Escherichia coli. Description: Antimicrobial activity against Escherichia coli MTCC 443 incubated for overnight by broth micro dilution method. Format: functional.
Data set [6] has as its system Pseudomonas aeruginosa. The experiment in a line: Antimicrobial activity against Pseudomonas aeruginosa MTCC 1688 incubated for overnight by broth micro dilution method. Type of data set: functional.
Data set [7] has as its system Plasmodium falciparum. The experiment in a line: Antimalarial activity against Plasmodium falciparum ring stage forms after 48 hrs. Type of data set: functional.
Data set [8] can be described thus: Cytotoxicity against Schizosaccharomyces pombe Var. Paul Linder 3360 assessed as cell viability at 2 ug/ml after 16 to 18 hrs by trypan blue staining-based compound microscopic analysis (reference value: 93.67 +/- 1.53%). The note with it: Schizosaccharomyces pombe Var. Paul Linder 3360 cells, read-out: Activity.
Data set [9] can be described thus: Cytotoxicity against Schizosaccharomyces pombe Var. Paul Linder 3360 assessed as cell viability at 4 ug/ml after 16 to 18 hrs by trypan blue staining-based compound microscopic analysis (reference value: 93.67 +/- 1.53%). The note with it: Schizosaccharomyces pombe Var. Paul Linder 3360 cells, read-out: Activity.
Data set [10] is described as follows: Cytotoxicity against Schizosaccharomyces pombe Var. Paul Linder 3360 assessed as cell viability at 6 ug/ml after 16 to 18 hrs by trypan blue staining-based compound microscopic analysis (reference value: 93.67 +/- 1.53%). The note with it: Schizosaccharomyces pombe Var. Paul Linder 3360 cells, read-out: Activity.
Data set [11] in a line: Cytotoxicity against Schizosaccharomyces pombe Var. Paul Linder 3360 assessed as cell viability at 8 ug/ml after 16 to 18 hrs by trypan blue staining-based compound microscopic analysis (reference value: 93.67 +/- 1.53%). Conditions: Schizosaccharomyces pombe Var. Paul Linder 3360 cells, read-out: Activity.
Data set [12] is described as follows: Cytotoxicity against Schizosaccharomyces pombe Var. Paul Linder 3360 assessed as cell viability at 10 ug/ml after 16 to 18 hrs by trypan blue staining-based compound microscopic analysis (reference value: 93.67 +/- 1.53%). Conditions: Schizosaccharomyces pombe Var. Paul Linder 3360 cells, read-out: Activity.
In data set [13] the test system is Schizosaccharomyces pombe. Description: Genotoxicity in Schizosaccharomyces pombe Var. Paul Linder 3360 assessed as DNA damage at 2 to 10 ug/ml after 17 to 18 hrs by agarose gel electrophoresis analysis.
The test system of data set [14] is Aspergillus clavatus. Conditions: MTCC 1323.

Values after ≈ are worked out from the molar mass of the structure shown. Active and inactive are the calls of the source. The calls are words filed in the database; no cut-off is given here.

With `COC1=CC(=O)C[C@@H](C)[C@]12Oc1c(Cl)c(OC)cc(OC)c1C2=O` [GRISEOFULVIN], the MIC99 in data set [1] was determined as 1420 µM (≈ 501 µg/mL); in data set [2] it was 284 µM (≈ 100 µg/mL).

Turning to `COc1ccc(/C=N/c2ccc(-c3nnc(S)n3/N=C/c3ccc(OC)cc3)cc2)cc1`, the MIC99 in data set [3] amounted to 226 µM (≈ 100 µg/mL); in data set [4], 564 µM (≈ 250 µg/mL); in data set [5], 282 µM (≈ 125 µg/mL); in data set [6], 564 µM (≈ 250 µg/mL); in data set [1], 1130 µM (≈ 500 µg/mL); in data set [2], 1130 µM (≈ 500 µg/mL). This molecule also came in with an IC50 in [7] of 835 nM. The viability at 2 ug/ml in data set [8] worked out at 79%. Further, the viability at 4 ug/ml in data set [9] came out at 64.3%. The viability at 6 ug/ml in data set [10] was 59%. Also, the viability at 8 ug/ml in data set [11] amounted to 52.7%. Besides, the viability at 10 ug/ml in data set [12] was determined as 38.7%. For the same molecule, in data set [13], the Activity result was “Toxic”.

Take NYSTATIN: the MIC99 in data set [1] and in [14] was 108 µM throughout.

In the case of `O=C(N[C@H](CO)[C@H](O)c1ccc([N+](=O)[O-])cc1)C(Cl)Cl` [CHLORAMPHENICOL], the MIC99 in data set [3], in data set [4], in data set [5] and in data set [6] was 155 µM (≈ 50.1 µg/mL) in each case.

Consider `Oc1ccc(/C=N/c2ccc(-c3nnc(S)o3)cc2)cc1`, for which the MIC99 is 673 µM (≈ 200 µg/mL) in data set [3], 673 µM (≈ 200 µg/mL) in data set [4], 421 µM (≈ 125 µg/mL) in [5] and 842 µM (≈ 250 µg/mL) in [6]. Moreover, the MIC99 entry in data set [1] and in [14] was “inactive” throughout. This molecule also came in with an IC50 in [7] of 822 nM. Moreover, the viability at 2 ug/ml in data set [8] amounted to 82.3%. For the same molecule, the viability at 4 ug/ml in [9] was 78.3%. Besides, the viability at 6 ug/ml in data set [10] was 72%. Besides, the viability at 8 ug/ml in data set [11] worked out at 67%. The viability at 10 ug/ml in data set [12] came out at 45.3%. In data set [13], the Activity entry is listed as “Toxic”.

For `O=C(O)c1cn(C2CC2)c2cc(N3CCNCC3)c(F)cc2c1=O` [CIPROFLOXACIN], the MIC99 in data set [3] stood at 151 µM (≈ 50 µg/mL); in data set [4], 151 µM (≈ 50 µg/mL); in data set [5], 75 µM (≈ 24.9 µg/mL); in data set [6] it was 75 µM (≈ 24.9 µg/mL).

In the case of `CCn1cc(C(=O)O)c(=O)c2cc(F)c(N3CCNCC3)cc21` [NORFLOXACIN], the MIC99 in [3], in [4], in [5] and in data set [6] was 31 µM (≈ 9.9 µg/mL) in each case.

Turning to `CCc1nc(N)nc(N)c1-c1ccc(Cl)cc1` [PYRIMETHAMINE], in [7], the IC50 was 1000 nM.

On to `Sc1nnc(-c2ccc(/N=C/c3cccs3)cc2)o1`, for which the MIC99 in data set [3] amounted to 348 µM (≈ 100 µg/mL); in data set [4], 697 µM (≈ 200 µg/mL); in data set [5] it was 436 µM (≈ 125 µg/mL); in [6], 871 µM (≈ 250 µg/mL). Also, the MIC99 entry in [1] and in data set [14] was “inactive” each time. For the same molecule, the midpoint of inhibition in data set [7], the IC50, lay at 802 nM. Besides, in [8], the viability at 2 ug/ml was 74.3%. The viability at 4 ug/ml in data set [9] worked out at 70.7%. Moreover, in data set [10], the viability at 6 ug/ml stood at 66.3%. Also, in data set [11], the viability at 8 ug/ml stood at 61%. For the same molecule, the viability at 10 ug/ml in data set [12] is 52.7%. The Activity entry in [13] is given as “Toxic”.

As to `CC1(C)S[C@@H]2[C@H](NC(=O)[C@H](N)c3ccccc3)C(=O)N2[C@H]1C(=O)O` [AMPICILLIN], the MIC99 in data set [3] amounted to 286 µM (≈ 99.9 µg/mL); in data set [4], 716 µM (≈ 250 µg/mL); in data set [5], 286 µM (≈ 99.9 µg/mL); in [6] it was 286 µM (≈ 99.9 µg/mL).

For the molecule `Sc1nnc(-c2ccc(/N=C/c3cccs3)cc2)n1/N=C/c1cccs1`, the MIC99 in [3] is 506 µM (≈ 200 µg/mL); in [4], 633 µM (≈ 250 µg/mL); in data set [5] it was 316 µM (≈ 125 µg/mL); in data set [6] it was 633 µM (≈ 250 µg/mL); in [1], 2530 µM (≈ 1000 µg/mL). Besides, the IC50 in [7] is 815 nM. Moreover, in data set [8], the viability at 2 ug/ml stood at 87.7%. In data set [9], the viability at 4 ug/ml worked out at 82%. The viability at 6 ug/ml in [10] was determined as 75.3%. Further, the viability at 8 ug/ml in [11] stood at 70.7%. In data set [12], the viability at 10 ug/ml was found to be 63.3%. The Activity result in data set [13] is reported as “Toxic”. Moreover, the MIC99 entry in data set [14] is “inactive”.
